According to US5698551A, “Heterocyclic compounds” (Novo Nordisk A/S, priority 1995, dated 1997):

Test system: NMRI female mice
Experiment: Inhibition of formalin induced pain response in mice
Format: in vivo
Details: at 0.1 mg/kg, 1% formalin into left hind paw
Method: Formalin induced pain or paw oedema
Values for in vivo inhibition of formalin induced pain or oedema for the compounds of the present invention were assessed in mice essentially by the method of Wheeler-Aceto and Cowan (Agents Action 1991, 34, 265-269).
About 20 g NMRI female mice were injected […] 1% formalin into the left hind paw. The animals were then placed on a heated (31° C.) table, and the pain response was scored. After 1 h they were killed and bled. Left and right hind paws were removed and the weight difference between the paws was used as indication of the oedema response of the formalin injected paw.
Values for inhibition of formalin induced pain response for some representative compounds are recorded in table 1.

Compound | % Pain inhibition (inhibition of formalin induced pain response)
Cl.O=C(O)[C@@H]1CCCN(CCCN2C(=O)c3ccccc3Nc3ccccc32)C1 [Example 1, (R)-1-(3-(11-Oxo-10,11-dihydro-5H-dibenzo[b,e][1,4]diazepin-10-yl)-1-propyl)-3-piperidinecarboxylic acid hydrochloride] | 13%
Cl.O=C(O)[C@@H]1CCCN(CCCN2C(=O)c3ccccc3CCc3ccccc32)C1 [Example 2, (R)-1-(3-(6-Oxo-11,12-dihydro-5H-dibenz[b,f]azocin-5-yl)-1-propyl)-3-piperidinecarboxylic acid hydrochloride] | 34%
Cl.O=C(O)[C@@H]1CCCN(CCCN2Cc3ccccc3Cc3ccccc32)C1 [Example 3, (R)-1-(3-(6,11-Dihydro-5H-dibenz[b,e]azepin-5-yl)-1-propyl)-3-piperidine-carboxylic acid hydrochloride] | 36%
Cl.O=C(O)[C@@H]1CCCN(CCCn2c(=O)c3ccccc3c(=O)c3ccccc32)C1 [Example 4, (R)-1-(3-(6,11-Dioxo-6,11-dihydro-5H-dibenz[b,e]azepin-5-yl)-1-propyl)-3-piperidine-carboxylic acid hydrochloride] | 28%
Cl.Cl.O=C(O)[C@@H]1CCCN(CCCN2Cc3ccccc3CCc3ccccc32)C1 [Example 6, (R)-1-(3-(5,6,11,12-Tetrahydro-dibenz[b,f]azocin-5-yl)-1-propyl)-3-piperidinecarboxylic acid dihydrochloride] | 22%
